EP0494777A1, “(S)-11-Hydroxy-10-methyl aporphine and pharmaceutical compositions containing it” (BRITISH TECHNOLOGY GROUP LTD, priority 1991, dated 1992)

How the values were obtained:
5-HT1A sites = target: T1, 5-HT1A sites (Rattus norvegicus, UniProt P19327); assay: Radioligand binding vs. [³H]8-OH DPAT in rat cortex membranes
T1 construct: 5% (w/v) homogenized rat cortex; from tissue; host or cells: rat cortex membranes
T1 sequence (P19327 1-422): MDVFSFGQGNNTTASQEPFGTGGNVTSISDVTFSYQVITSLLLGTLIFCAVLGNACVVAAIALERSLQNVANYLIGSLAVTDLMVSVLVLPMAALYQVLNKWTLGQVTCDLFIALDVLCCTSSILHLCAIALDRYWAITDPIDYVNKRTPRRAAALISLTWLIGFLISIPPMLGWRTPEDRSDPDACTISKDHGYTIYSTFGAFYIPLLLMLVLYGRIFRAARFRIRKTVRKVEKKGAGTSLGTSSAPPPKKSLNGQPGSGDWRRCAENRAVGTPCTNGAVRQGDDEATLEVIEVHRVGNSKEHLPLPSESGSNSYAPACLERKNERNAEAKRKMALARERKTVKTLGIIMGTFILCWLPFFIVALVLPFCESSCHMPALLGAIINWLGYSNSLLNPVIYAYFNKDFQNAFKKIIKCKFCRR
Method: Binding studies to determine the affinity of both the (R) and (S) enantiomer for 5-HT1A sites were conducted as previously described by Cannon et al., ibid. Rat cortex was homogenized in ice cold solution, centrifuged to isolate the membranes, and then washed. […] Non-specific binding was defined as binding remaining in the presence of 10 µM of 5-HT. […] The results are presented below in the Table together with those obtained in the studies using guinea pig ilea.

guinea pig ileum = target: T2, guinea pig ileum (Cavia porcellus, UniProt A0A286Y074); assay: Single shock stimulation of guinea pig ileum: inhibition of longitudinal muscle contractions, or antagonism of the inhibitory action of 8-OH DPAT; conditions: for washings needed to return responses to induced electrical stimulation to control levels: after inhibition of contractions
T2 sequence (A0A286Y074 1-421): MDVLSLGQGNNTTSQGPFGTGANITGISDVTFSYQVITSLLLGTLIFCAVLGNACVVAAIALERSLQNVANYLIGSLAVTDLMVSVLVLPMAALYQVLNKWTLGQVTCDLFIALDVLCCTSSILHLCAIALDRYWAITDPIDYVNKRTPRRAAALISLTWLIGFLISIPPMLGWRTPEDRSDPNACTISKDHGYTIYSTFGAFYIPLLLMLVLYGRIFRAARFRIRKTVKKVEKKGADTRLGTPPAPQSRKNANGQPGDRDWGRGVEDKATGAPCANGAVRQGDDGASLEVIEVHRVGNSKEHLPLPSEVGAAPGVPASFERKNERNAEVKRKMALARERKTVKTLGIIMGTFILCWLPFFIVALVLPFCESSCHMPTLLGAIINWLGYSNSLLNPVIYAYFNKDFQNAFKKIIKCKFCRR
Method: Guinea pigs were anaesthetized with 35 mg of pentobarbital Na, administered i.p. and then sacrificed. Two centimeters of ileum, 10 cm from the cecum, was placed in Krebs-Ringer solution, and longitudinal muscle contractions were measured using a Stateham GT-03 force transducer. Contractions were recorded using a Beckman R-611 recorder.

## Cc1ccc2c(c1O)-c1cccc3c1[C@H](C2)N(C)CC3.Cl [(S), (S)-11-Hydroxy-10-methylaporphine hydrochloride]
5-HT1A sites
  Ki: 39 nM
Guinea pig ileum; 1 µM
  effect on ileum stimulating properties of nicotine: did not alter
  effect on ileum stimulating properties of potassium chloride: did not alter
  effect on resting tone of the ileum: did not alter
Guinea pig ileum; read-out: ED50 for antagonism of inhibition of contraction by 8-OH DPAT, single shock stimulation of guinea pig ileum, concentration of 8-OH-DPAT 0.06 μM
  IC50: 30 nM
Guinea pig ileum; single shock stimulation of cholinergic neurons
  antagonism of inhibition of contractions by the (R)-enantiomer: antagonized
Guinea pig ileum; transmural single shock stimulation (0.1 Hz)
  Single Shock stimulation of guinea pig ileum ED50 for inhibition of contractions: inactive
Guinea pig ileum; washout
  duration of repeated washings required to re-establish sensitivity of the preparation to the (R)-enantiomer or 8-OH DPAT: 2 to 3 h

## CCCN(CCC)C1CCc2cccc(O)c2C1 (stereo not drawn) [8-OH DPAT, 8-hydroxy-2-di-n-propylaminotetralin, reference compound]
Guinea pig ileum
  washings needed to return responses to induced electrical stimulation to control levels: Two or three
Guinea pig ileum; read-out: maximal inhibition of contractions induced by transmural stimulation
  inhibition at 0.06 µM: ~35%

## CN1C2CCC1CC(OC(=O)C(CO)c1ccccc1)C2 (racemic) [atropine sulphate, reference compound]
Guinea pig ileum
  effect on contractions induced by transmural single shock stimulation: inhibited

## Cc1ccc2c(c1O)-c1cccc3c1[C@@H](C2)N(C)CC3 [(R), (R)-11-hydroxy-10-methylaporphine, reference compound]
5-HT1A sites
  Ki: 3.1 nM
Guinea pig ileum
  washings needed to return responses to induced electrical stimulation to control levels: Two or three
Guinea pig ileum; read-out: Single Shock stimulation of guinea pig ileum ED50 for inhibition of contractions, transmural single shock stimulation (0.1 Hz)
  EC50: 50 nM
Guinea pig ileum; single shock stimulation of guinea pig ileum, concentration of 8-OH-DPAT 0.06 μM
  ED50 for antagonism of inhibition of contraction by 8-OH DPAT: inactive
